Laboratory results published in PMC7954794, “Protein context shapes the specificity of SH3 domain-mediated interactions in vivo” (Nature Communications, 2021).

Legend:
Type in all cases: cell-based, Saccharomyces cerevisiae
[1] = test system: BBC1; assay: DHFR-PCA on solid medium, bait BBC1 (Fig. 1B); conditions: bait BBC1, label = prey; 2-4 replicates
Excerpt: (§1) Supplement 41467_2021_21873_MOESM8_ESM.xlsx, sheet "Fig1B" | column: medsize; medrep; Ratio; Score

[2] = test system: ABP1; assay: DHFR-PCA on solid medium, bait ABP1 (Fig. 1B); conditions: bait ABP1, label = prey; 2-4 replicates
Excerpt: as §1

[3] = test system: BOI1; assay: DHFR-PCA on solid medium, bait BOI1 (Fig. 1B); conditions: bait BOI1, label = prey
Excerpt: as §1

[4] = test system: BUD14; assay: DHFR-PCA on solid medium, bait BUD14 (Fig. 1B); conditions: bait BUD14, label = prey; 4 replicates
Excerpt: as §1

[5] = test system: BZZ1-1; assay: DHFR-PCA on solid medium, bait BZZ1-1 (Fig. 1B); conditions: bait BZZ1-1, label = prey; 4 replicates
Excerpt: Supplement 41467_2021_21873_MOESM8_ESM.xlsx, sheet "Fig1B" | column: medsize; medrep; Score

[6] = test system: BOI2; assay: DHFR-PCA on solid medium, bait BOI2 (Fig. 1B); conditions: bait BOI2, label = prey; 3-8 replicates
Excerpt: as §1

[7] = test system: BEM1-2; assay: DHFR-PCA on solid medium, bait BEM1-2 (Fig. 1B); conditions: bait BEM1-2, label = prey; 2-8 replicates
Excerpt: as §1

[8] = test system: BEM1-1; assay: DHFR-PCA on solid medium, bait BEM1-1 (Fig. 1B); conditions: bait BEM1-1, label = prey; 2-8 replicates
Excerpt: as §1

[9] = test system: growth of yeast strains under 51 stress conditions; assay: Growth assays in 51 stress conditions (Fig. 1E-F, S2D, S5B); design: key to Growth (Fig. S2D) / growth of ABP1 SH3-swapped strains in stress condition: log2 colony size, average of median per strain (growth score); conditions: FigS2D
Experimental: All WT, SH3-deleted, KO (except for CDC25 which is the only essential SH3-containing gene in yeast), ABP1 SH3-swapped, and SLA1 SH3-shuffled strains were grown on omnitrays in 1536 formats and robotically manipulated with a pin tool (the DHFR F[1,2] bait strains were used except for the KO strains). Each strain was randomly positioned in 6 replicates per plate and two plates per condition were performed, for 12 replicates per strain in total. A border of two rows and two columns of WT strains (BY4741) around the plate was used to remove border effects. Strains were grown on YPD media for two days at 30 °C. They were then replicated on 51 different media that are described in the Supplementary Table 3 and were incubated at 37 °C in a spImager custom platform with images acquired every two hours for four days. The colony sizes from plate pictures were also measured with the R package “Gitter” and the output was manually inspected. Positions with an abnormality in colony circularity were removed. The colony sizes after 74 h of incubation at 37 °C were log2 transformed and used for the analyses. First, the differences between the two plate replicates were corrected to remove plate effects. The median colony size was calculated for each strain per plate. Strains with a difference in their median colony size of more than two between the two plate replicates were removed. Finally, the average of the median colony size was calculated for each strain per condition (growth score).

[10] = test system: PPIs identified as affected by the SH3 domain deletions; assay: Liquid DHFR-PCA low-throughput validation of PPIs affected by SH3 deletion (Fig. S1D-E); conditions: Deletedscore/WTscore
Experimental: Liquid DHFR-PCA low-throughput experiments were performed to validate the PPIs identified as affected by the SH3 domain deletions in the high-throughput solid DHFR-PCA screen (256 PPIs weaker or lost and 116 PPIs stronger or gained following domain deletions). Mating and the diploid selection were performed as described for the large-scale experiment, with the exception that the plates were in 384 formats. Following the second diploid selection, diploid cells were inoculated in a 96 v-shaped well plate using a robotically manipulated 96 pin tool in a synthetic complete medium with MSG at pH 6.0 with NAT and HPH. After 48 h of growth, optical density (OD) was read using a TECAN Infinite F200 Pro, and dilutions to 1 OD in sterile nanopure water were prepared. Cells were then diluted to 0.1 OD by combining 25 µl of cell suspension at OD = 1 and 225 µl of PCA selection media without agar in a 96-wells plate. Plates were incubated at 30 °C in a TECAN Infinite M Nano and OD was monitored each 15 min for 72 h.

YAL005C
medrep (log2 median colony size normalized to plate background, PCA score) [1]: 5.353
medrep (log2 median colony size normalized to plate background, PCA score) [2]: 5.43
medrep (log2 median colony size normalized to plate background, PCA score) ([3]; 3-8 replicates): 3.321
Ratio (SH3-deleted/WT medrep) ([3]; only significant differences showed, PPIs completely lost have a ratio of 0.1 and the gained PPIs 2.5): 1.412
medrep (log2 median colony size normalized to plate background, PCA score) [4]: 4.297
medrep (log2 median colony size normalized to plate background, PCA score) [5]: 4.381
medrep (log2 median colony size normalized to plate background, PCA score) [6]: 4.382
medrep (log2 median colony size normalized to plate background, PCA score) [7]: 4.321
medrep (log2 median colony size normalized to plate background, PCA score) [8]: 4.321

RVS167
growth of ABP1 SH3-swapped strains in stress condition ([9]; Bathophenanthroline.0.1uM): 10.8266
growth of ABP1 SH3-swapped strains in stress condition ([9]; Bathophenanthroline.10uM): 10.6504
growth of ABP1 SH3-swapped strains in stress condition ([9]; Bathophenanthroline.1uM): 10.7571
growth of ABP1 SH3-swapped strains in stress condition ([9]; CaCl2.100mM): 10.7957
growth of ABP1 SH3-swapped strains in stress condition ([9]; CaCl2.250mM): 10.7147
growth of ABP1 SH3-swapped strains in stress condition ([9]; CaCl2.500mM): 10.2304
growth of ABP1 SH3-swapped strains in stress condition ([9]; Caffein.10mM): 10.0011
growth of ABP1 SH3-swapped strains in stress condition ([9]; Caffein.2mM): 10.9656
growth of ABP1 SH3-swapped strains in stress condition ([9]; CdCl2.100uM): 9.478
growth of ABP1 SH3-swapped strains in stress condition ([9]; CdCl2.10uM): 10.8675
growth of ABP1 SH3-swapped strains in stress condition ([9]; CdCl2.50uM): 10.0052
growth of ABP1 SH3-swapped strains in stress condition ([9]; CuSO4.1mM): 10.4401
growth of ABP1 SH3-swapped strains in stress condition ([9]; CuSO4.5mM): 7.809
growth of ABP1 SH3-swapped strains in stress condition ([9]; Cycloheximide.0.05.uM): 11.0732
growth of ABP1 SH3-swapped strains in stress condition ([9]; Cycloheximide.0.2.uM): 10.5897
growth of ABP1 SH3-swapped strains in stress condition ([9]; Cycloheximide.0.5.uM): 10.0755
growth of ABP1 SH3-swapped strains in stress condition ([9]; DMSO.2.): 10.9922
growth of ABP1 SH3-swapped strains in stress condition ([9]; DMSO.6.): 9.827
growth of ABP1 SH3-swapped strains in stress condition ([9]; DMSO.8.): 9.078
growth of ABP1 SH3-swapped strains in stress condition ([9]; Ethanol.2.): 10.7562
growth of ABP1 SH3-swapped strains in stress condition ([9]; Ethanol.6.): 10.3054
growth of ABP1 SH3-swapped strains in stress condition ([9]; Ethanol.8.): 10.1073
growth of ABP1 SH3-swapped strains in stress condition ([9]; Galactose.2.): 10.7616
growth of ABP1 SH3-swapped strains in stress condition ([9]; Glycerol.2.): 9.801
growth of ABP1 SH3-swapped strains in stress condition ([9]; Hydroxyurea.25mM): 10.7452
growth of ABP1 SH3-swapped strains in stress condition ([9]; Hygromycin.190uM): 10.9449
growth of ABP1 SH3-swapped strains in stress condition ([9]; Hygromycin.19uM): 10.972
growth of ABP1 SH3-swapped strains in stress condition ([9]; Hygromycin.95uM): 11.0099
growth of ABP1 SH3-swapped strains in stress condition ([9]; MMS.0.004.): 10.8938
growth of ABP1 SH3-swapped strains in stress condition ([9]; MMS.0.02.): 10.6752
growth of ABP1 SH3-swapped strains in stress condition ([9]; MMS.0.04.): 9.941
growth of ABP1 SH3-swapped strains in stress condition ([9]; Menadione.100uM): 10.5548
growth of ABP1 SH3-swapped strains in stress condition ([9]; Menadione.200uM): 10.4212
growth of ABP1 SH3-swapped strains in stress condition ([9]; Menadione.50uM): 10.7634
growth of ABP1 SH3-swapped strains in stress condition ([9]; NaCl.0.25M): 10.7655
growth of ABP1 SH3-swapped strains in stress condition ([9]; NaCl.1M): 9.597
growth of ABP1 SH3-swapped strains in stress condition ([9]; Nitroquinoline.10uM): 10.6917
growth of ABP1 SH3-swapped strains in stress condition ([9]; Nitroquinoline.50uM): 10.5789
growth of ABP1 SH3-swapped strains in stress condition ([9]; Nystatin.0.01uM): 10.9774
growth of ABP1 SH3-swapped strains in stress condition ([9]; Nystatin.0.1uM): 10.9878
growth of ABP1 SH3-swapped strains in stress condition ([9]; Raffinose.2.): 11.0045
growth of ABP1 SH3-swapped strains in stress condition ([9]; Rapamycin.10nM): 9.889
growth of ABP1 SH3-swapped strains in stress condition ([9]; Rapamycin.50nM): 9.373
growth of ABP1 SH3-swapped strains in stress condition ([9]; SC.pH3): 10.3957
growth of ABP1 SH3-swapped strains in stress condition ([9]; SC.pH6): 10.965
growth of ABP1 SH3-swapped strains in stress condition ([9]; SDS.0.01.): 10.9519
growth of ABP1 SH3-swapped strains in stress condition ([9]; SDS.0.02.): 11.0022
growth of ABP1 SH3-swapped strains in stress condition ([9]; SDS.0.05.): 10.8383
growth of ABP1 SH3-swapped strains in stress condition ([9]; Sorbitol.10mM): 10.9602
growth of ABP1 SH3-swapped strains in stress condition ([9]; Sorbitol.1mM): 11.0196
growth of ABP1 SH3-swapped strains in stress condition ([9]; Sorbitol.5mM): 10.9136
Ratio ([10]; prey YLR144C_1): 0.9983
Ratio ([10]; prey YLR166C_1): 0.4047
Ratio ([10]; prey YLR314C_1): 1.009
Ratio ([10]; prey YLR332W_1): 0.5527
Ratio ([10]; prey YML016C_1): 0.7209
Ratio ([10]; prey YMR192W_1): 0.4415
Ratio ([10]; prey YNL084C_1): 0.8207
Ratio ([10]; prey YNL106C_1): 0.4642
Ratio ([10]; prey YNL255C_1): 0.9975
Ratio ([10]; prey YPL246C_1): 0.6027
Ratio ([10]; prey YPL249C_1): 0.4423
Ratio ([10]; prey YPR055W_1): 0.5489
